Measured values from patent publication US20260091082A1, “CYCLIC PEPTIDE DERIVATIVE COMPOSITION FOR TREATING OR PREVENTING EYE DISEASE” (DKS Co. Ltd., priority 2022, published 2026).
Where “and” joins values, the source holds several entries; their conditions need not be identical. Equal entries are not always repeated.

Tested on: anterior chamber aqueous humor pressure load rat model
Experiment: Retinal thickness (IPL, INL, ONL) in retinal damage model induced by anterior chamber aqueous humor pressure load
Assay type: in vivo, Rat; Slc: SD
Settings: for Thickness of INL (μm) / Thickness of IPL (μm) / Thickness of ONL (μm): 14 days after model creation, mean ± S.E., 10 animals
Procedure: • Name: Compound 9 • Source: Synthesized in the above Examples • Used amount: 0.4 mL (50 mg/mL solution) • Storage conditions: Freezing, light shielding
Method for preparing test substance (1 mg/mL): A high concentration solution prepared at 50 mg/mL was diluted 50 times with a medium to prepare a 1 mg/mL administration solution.
• Name: MK-801 • Distributor: SIGMA-ALDRICH • Use amount: 0.0501 g • Storage condition: refrigerated (2° C. to 8° C.)
Method for preparing positive control substance (10 mg/mL): 0.0501 g was weighed out and made up to a total volume of 5 mL with a control substance (physiological saline).
• Species and strains: Rat; Slc: SD • Number of animals on arrival and sex: 50 males • Age in weeks at arrival: 6 weeks old • Body weight range at arrival: 147.2 to 170.0 g • Source: Japan SLC, Inc.
Grouping was performed two days before the first creation of the retinal damage model induced by an anterior chamber aqueous humor pressure load. Using the daily body weight as an index, stratified random allocation was performed using SAS (Ver. 9.3, SAS Institute Japan Ltd.) and EXSUS (Ver. 8.0, CAC Croit Corporation) so that an average value of the body weights of each group was approximately uniform.
• Administration route: Eyedrop administration, intravenous administration • Administration method (eyedrop): Eyedrop administration was performed on a treated eye (right eye) of a rat using a micropipette 4 times a day (at intervals of 1.5 hours or more). • Administration method (intravenous): The amount of administration solution, calculated from the body weight on the day of administration, was administered from the tail vein using a syringe and an injection needle about 30 minutes before ischemic load. • Time of administration: Administration was performed according to the following schedule.
1. 10 mg/kg xylazine hydrochloride was intramuscularly administered on the model creation day (day 0). A rat was placed in an anesthesia box and subjected to general anesthesia with isoflurane (5%, oxygen:nitrous oxide=1:3). When anesthesia was effective, the rat was taken out of the anesthesia box, an inhalation anesthetic mask was worn, and anesthesia was maintained with isoflurane (1% to 5%, oxygen nitrous oxide=1:3).
2. The body temperature was maintained at 37° C. with a warming mat, and a mydrin P ophthalmic solution was instilled in the right eye (treated eye) of the rat to dilate the pupil, then the cravit ophthalmic solution 1.5% (Santen Pharmaceutical Co., Ltd.) was instilled.
3. A bottle of an IV bag containing physiological saline was previously suspended so that a water surface was 155 cm (100 mmHg or more) higher than the eye of the rat. The IV bag was connected to a pediatric infusion set (Terumo Corporation), a 27 G injection needle thereof was inserted into and fixed to the anterior chamber while slightly dripping the liquid from a needle tip. The model was created in the light phase (6:00 to 18:00) in consideration of the diurnal variation of the intraocular pressure.
4. After the needle was inserted into the anterior chamber, pressure (100 mmHg or more) was loaded and maintained in the anterior chamber by associating the reflux system.
5. After an ischemic load for 45 minutes, the injection needle and the like were removed, the inhalation anesthetic mask was removed, and the rat was sufficiently woken up under a warming mat, and then returned to the cage.
6. For 2 days after surgery, 10 mg/kg xylazine hydrochloride was intramuscularly administered as an analgesic for the purpose of alleviating the pain after the treatment.
1. Fourteen days after model creation, general anesthesia was performed with isoflurane (5%, oxygen:nitrous oxide=1:3), euthanasia was then performed by exsanguination, a suture was placed as a marker at the 12 o'clock position of the ocular conjunctiva, and eyeball enucleation was performed.
2. […]

[1] = 300 μm from optic disk, 1 mg/mL eye drop 4 times/day for 13 days from the day after model creation (test group 3)
[2] = 300 μm from optic disk, 1 mg/mL eye drop 4 times/day for 13 days from the day after model creation (test group 3), listed as compound 9
[3] = 300 μm from optic disk, (pre) 1 mg/mL eye drop 4 times/day on the 2 days before model creation (test group 2)
[4] = 300 μm from optic disk, (pre) 1 mg/mL eye drop 4 times/day on the 2 days before model creation (test group 2), listed as compound 9
[5] = 600 μm from optic disk, 1 mg/mL eye drop 4 times/day for 13 days from the day after model creation (test group 3)
[6] = 600 μm from optic disk, 1 mg/mL eye drop 4 times/day for 13 days from the day after model creation (test group 3), listed as compound 9
[7] = 600 μm from optic disk, (pre) 1 mg/mL eye drop 4 times/day on the 2 days before model creation (test group 2)
[8] = 600 μm from optic disk, (pre) 1 mg/mL eye drop 4 times/day on the 2 days before model creation (test group 2), listed as compound 9
[9] = 900 μm from optic disk, 1 mg/mL eye drop 4 times/day for 13 days from the day after model creation (test group 3)
[10] = 900 μm from optic disk, 1 mg/mL eye drop 4 times/day for 13 days from the day after model creation (test group 3), listed as compound 9
[11] = 900 μm from optic disk, (pre) 1 mg/mL eye drop 4 times/day on the 2 days before model creation (test group 2)

CC[C@@]1(C)Oc2cc(ccc2O)C[C@H](NC)C(=O)N[C@@H](C(C)C)C(=O)N[C@@H]1C(=O)N[C@@H](CC(=O)O)C(=O)O [Compound 9]
Thickness of INL (μm), Distance from Optic Disk 300 μm (1 mg/mL eye drop (not pre), right eye, 300 μm from optic disk, individual measurements per animal): 27.268 μm and 29.194 μm and 27.960 μm and 26.601 μm and 24.843 μm (2×) and 25.835 μm and 20.052 μm and 21.030 μm and 18.618 μm and 25.039 μm and 27.705 μm and 29.211 μm and 23.276 μm and 30.228 μm and 28.329 μm (2×) and 29.740 μm (2×) and 27.292 μm and 28.168 μm and 41.632 μm and 38.927 μm and 48.313 μm and 31.260 μm and 35.869 μm and 37.963 μm and 31.090 μm and 28.954 μm and 30.909 μm | Thickness of IPL (μm), Distance from Optic Disk 300 μm (1 mg/mL eye drop (not pre), right eye, 300 μm from optic disk, individual measurements per animal, listed as compond 9): 32.198 μm and 30.002 μm and 34.224 μm and 39.119 μm and 37.558 μm and 34.827 μm and 27.585 μm and 28.700 μm and 33.412 μm and 37.176 μm (3×) and 37.457 μm and 36.016 μm and 35.842 μm and 37.411 μm and 38.117 μm and 35.930 μm and 36.185 μm and 37.237 μm and 38.550 μm and 39.901 μm and 45.876 μm and 47.765 μm and 46.968 μm and 35.532 μm and 36.791 μm and 36.389 μm and 42.704 μm and 39.019 μm | Thickness of INL (μm), Distance from Optic Disk 300 μm, Mean (1 mg/mL eye drop (not pre), right eye, 300 μm from optic disk, mean per animal): 28.141 μm and 25.760 μm and 19.900 μm and 25.862 μm and 27.572 μm and 28.454 μm and 28.746 μm and 42.957 μm and 35.031 μm and 30.318 μm | Thickness of IPL (μm), Distance from Optic Disk 300 μm, Mean (1 mg/mL eye drop (not pre), right eye, 300 μm from optic disk, mean per animal, listed as compond 9): 32.141 μm and 37.168 μm and 29.899 μm and 36.883 μm and 36.810 μm and 36.744 μm and 38.563 μm and 46.870 μm and 36.237 μm and 39.633 μm | Thickness of INL (μm), Distance from Optic Disk 600 μm (1 mg/mL eye drop (not pre), right eye, 600 μm from optic disk, individual measurements per animal): 24.738 μm and 26.582 μm and 31.689 μm and 28.581 μm and 25.207 μm and 26.625 μm and 29.576 μm and 28.954 μm and 37.237 μm and 34.673 μm and 26.256 μm and 29.926 μm and 35.484 μm and 34.715 μm and 36.694 μm and 38.253 μm and 32.381 μm and 33.458 μm and 33.871 μm and 36.611 μm and 27.419 μm and 34.733 μm and 25.544 μm and 26.908 μm and 37.411 μm and 29.937 μm and 35.493 μm and 34.034 μm and 32.419 μm and 29.046 μm | Thickness of IPL (μm), Distance from Optic Disk 600 μm (1 mg/mL eye drop (not pre), right eye, 600 μm from optic disk, individual measurements per animal, listed as compond 9): 38.128 μm and 36.322 μm and 43.429 μm and 43.876 μm and 37.066 μm and 37.938 μm and 42.704 μm and 40.500 μm and 46.031 μm and 45.964 μm and 42.314 μm (2×) and 45.398 μm and 49.200 μm and 42.129 μm and 48.205 μm and 50.755 μm and 43.015 μm and 42.630 μm and 42.759 μm and 41.121 μm and 42.214 μm and 37.880 μm and 41.066 μm and 41.515 μm and 38.919 μm and 45.161 μm and 49.299 μm and 44.538 μm and 46.083 μm | Thickness of INL (μm), Distance from Optic Disk 600 μm, Mean (1 mg/mL eye drop (not pre), right eye, 600 μm from optic disk, mean per animal): 26.246 μm and 31.668 μm and 25.792 μm and 28.479 μm and 36.440 μm and 28.706 μm and 35.231 μm and 36.327 μm and 32.753 μm and 33.176 μm | Thickness of IPL (μm), Distance from Optic Disk 600 μm, Mean (1 mg/mL eye drop (not pre), right eye, 600 μm from optic disk, mean per animal, listed as compond 9): 38.524 μm and 43.173 μm and 37.628 μm and 41.423 μm and 44.503 μm and 42.210 μm and 45.497 μm and 49.420 μm and 43.394 μm and 43.719 μm | Thickness of INL (μm), Distance from Optic Disk 900 μm (1 mg/mL eye drop (not pre), right eye, 900 μm from optic disk, individual measurements per animal): 23.463 μm and 23.821 μm and 26.168 μm and 31.627 μm and 31.452 μm and 31.822 μm and 18.956 μm and 25.938 μm and 21.867 μm and 22.952 μm and 23.718 μm and 22.465 μm and 26.601 μm and 27.289 μm and 29.587 μm and 30.400 μm and 26.367 μm and 26.057 μm and 35.226 μm and 33.688 μm and 33.919 μm and 36.066 μm and 40.039 μm and 42.383 μm and 29.394 μm and 29.751 μm and 27.773 μm and 29.233 μm and 27.808 μm and 25.454 μm | Thickness of IPL (μm), Distance from Optic Disk 900 μm (1 mg/mL eye drop (not pre), right eye, 900 μm from optic disk, individual measurements per animal, listed as compond 9): 39.528 μm and 37.965 μm and 40.039 μm and 50.240 μm and 47.772 μm and 44.149 μm and 38.417 μm and 36.462 μm and 38.383 μm and 39.277 μm and 38.777 μm and 38.865 μm and 45.233 μm and 47.955 μm and 43.645 μm and 43.616 μm and 43.735 μm and 42.098 μm and 53.201 μm and 48.131 μm and 47.334 μm and 50.136 μm and 51.594 μm and 51.265 μm and 43.640 μm and 42.918 μm and 42.582 μm and 46.425 μm and 48.902 μm and 47.239 μm | Thickness of INL (μm), Distance from Optic Disk 900 μm, Mean (1 mg/mL eye drop (not pre), right eye, 900 μm from optic disk, mean per animal): 24.484 μm and 31.634 μm and 22.254 μm and 23.045 μm and 27.826 μm and 27.608 μm and 34.278 μm and 39.496 μm and 28.973 μm and 27.498 μm | Thickness of IPL (μm), Distance from Optic Disk 900 μm, Mean (1 mg/mL eye drop (not pre), right eye, 900 μm from optic disk, mean per animal, listed as compond 9): 39.177 μm and 47.387 μm and 37.754 μm and 38.973 μm and 45.611 μm and 43.150 μm and 49.555 μm and 50.998 μm and 43.047 μm and 47.522 μm | Thickness of INL (μm) [1]: 29.27±1.94 μm | Thickness of IPL (μm) [1]: 37.09±1.42 μm | Thickness of ONL (μm) [1]: 42.79±2.60 μm | Thickness of INL (μm) [2]: 29.27 ± 1.94 μm | Thickness of ONL (μm) [2]: 42.79 ± 2.60 μm | Thickness of INL (μm) [3]: 28.93±1.27 μm | Thickness of IPL (μm) [3]: 31.31±0.93 μm | Thickness of ONL (μm) [3]: 40.06±1.61 μm | Thickness of INL (μm) [4]: 28.93 ± 1.27 μm | Thickness of ONL (μm) [4]: 40.06 ± 1.61 μm | Thickness of INL (μm) [5]: 31.48±1.26 μm | Thickness of IPL (μm) [5]: 42.95±1.07 μm | Thickness of ONL (μm) [5]: 42.33±1.81 μm | Thickness of INL (μm) [6]: 31.48 ± 1.26 μm | Thickness of ONL (μm) [6]: 42.33 ± 1.81 μm | Thickness of INL (μm) [7]: 31.25±1.29 μm | Thickness of IPL (μm) [7]: 38.85±1.23 μm | Thickness of ONL (μm) [7]: 43.03±0.82 μm | Thickness of INL (μm) [8]: 31.25 ± 1.29 μm | Thickness of ONL (μm) [8]: 43.03 ± 0.82 μm | Thickness of IPL (μm) [9]: 44.32±1.47 μm | Thickness of ONL (μm) [9]: 39.42±1.92 μm | Thickness of INL (μm) [10]: 28.71 ± 1.67 μm | Thickness of ONL (μm) [10]: 39.42 ± 1.92 μm | Thickness of INL (μm) [11]: 30.39±1.24 μm | Thickness of IPL (μm) [11]: 41.51±1.27 μm
